According to ChEMBL document CHEMBL1122225, “Synthesis and platelet aggregation inhibiting activity of prostaglandin D analogues” (J Med Chem, 1983):
Converted amounts (≈) assume the structure as drawn.

Legend:
[1] = Potency in gerbil colon stimulation assay compared to PGE1.; format: functional
Homo sapiens = species on record: Homo sapiens; assay: In vitro inhibition of ADP-induced platelet aggregation in human platelet rich plasma.; format: functional
[2] = Relative potency with respect to PGF2-alpha = 100 in rat blood pressure assay
[3] = Relative potency with respect to PGE1 = 100 in rat blood pressure assay; format: functional

SMILES | IC50 (Homo sapiens) [µg/mL] | Relative potency [1] | Relative potency [2] | Relative potency [3]
CCCCC[C@H](O)CCC1C(=O)C[C@H](O)[C@@H]1CCCCCCC(=O)O (stereo partly drawn) | 3.2 (≈ 8.98 µM) | 0.1 | 0.3 | 
CCCCC(C)(C)[C@H](O)/C=C/C1C(=O)C[C@H](O)[C@@H]1C/C=C\CCCC(=O)O (stereo partly drawn) |  | 3 | 32 | 
CCCCC[C@H](O)C/C=C1/C(=O)C[C@H](O)[C@@H]1C/C=C\CCCC(=O)O | 0.1 (≈ 0.284 µM) | 1 |  | 10
O=C(O)CCC/C=C\C[C@@H]1C(/C=C/[C@@H](O)CCc2ccccc2)C(=O)C[C@@H]1O (stereo partly drawn) | 3.2 (≈ 8.28 µM) | 10 | 32 | 
CCCCC[C@](C)(O)/C=C/C1C(=O)C=C[C@@H]1C/C=C\CCCC(=O)O (stereo partly drawn) | 1 (≈ 2.87 µM) | 0.3 |  | 0.1
CCCCC[C@@H]1/C=C\C2C(=O)CC(O)[C@@H]2C/C=C\CCCC(=O)O1 (stereo partly drawn) | 1 (≈ 2.99 µM) | 0.1 |  | 0.1
CCCCC/C=C/C=C1/C(=O)C[C@H](O)[C@@H]1C/C=C\CCCC(=O)O | 0.32 (≈ 0.957 µM) | <0.1 |  | 0.1
CCCCC[C@H](O)/C=C/C1C(=O)CC2OC(=O)CCC/C=C\C[C@@H]21 (stereo partly drawn) | 0.032 (≈ 0.0957 µM) | 0.3 |  | 1

Now from value to compound, other results behind:

IC50 (Homo sapiens) [µg/mL] | SMILES | Relative potency [1] | Relative potency [2] | Relative potency [3]
0.032 (≈ 0.0898 µM) | CCCCC[C@H](O)/C=C/C1C(=O)C[C@H](O)[C@@H]1CCOCCCC(=O)O (stereo partly drawn) | 0.3 |  | 
1 (≈ 2.63 µM) | CCCCC[C@H](O)/C=C/C1C(=O)C[C@H](O)[C@@H]1C/C=C\CCCCCC(=O)O (stereo partly drawn) | <0.1 |  | 
0.32 (≈ 0.903 µM) | CCCCC[C@H](O)/C=C/C1C(=O)C[C@H](O)[C@@H]1CCCCCCC(=O)O (stereo partly drawn) | 3 |  | 0.1
0.0032 (≈ 0.00957 µM) | CCCCC[C@H](O)/C=C/C1C(=O)C=C[C@@H]1C/C=C\CCCC(=O)O (stereo partly drawn) | 0.1 |  | 10
0.001 (≈ 0.00297 µM) | CCCCC[C@H](O)/C=C/C1C(=O)CC[C@@H]1C/C=C\CCCC(=O)O (stereo partly drawn) | 1 |  | 10
0.0032 (≈ 0.00908 µM) | CCCCC[C@H](O)/C=C/[C@H]1C(=O)C[C@H](O)[C@@H]1C/C=C/CCCC(=O)O [[3H]PGD2] | 3 |  | 10
0.32 (≈ 0.873 µM) | CCCCC[C@](C)(O)/C=C/C1C(=O)C[C@H](O)[C@@H]1C/C=C\CCCC(=O)O (stereo partly drawn) | 10 | 32 | 
0.0032 (≈ 0.00913 µM) | CC/C=C\C[C@H](O)/C=C/C1C(=O)C[C@H](O)[C@@H]1C/C=C\CCCC(=O)O (stereo partly drawn) | 1 |  | 10
0.0001 (≈ 0.000284 µM) | CCCCC[C@H](O)/C=C/C1C(=O)CC(O)[C@@H]1C/C=C\CCCC(=O)O (stereo partly drawn) | 0.3 |  | 10
